Experimental findings from ChEMBL document CHEMBL5506005, “Biochemical and structural characterization of chlorhexidine as an ATP-assisted inhibitor against type 1 methionyl-tRNA synthetase from Gram-positive bacteria” (Eur J Med Chem, 2024) are described below.

Assay [1] deals with Methionine--tRNA ligase (Staphylococcus aureus (strain Mu50 / ATCC 700699)) (UniProt P67578). In words: Binding affinity to Staphylococcus aureus MetRS expressed in Escherichia coli BL21(DE3) cells assessed as change in melting temperature at 100 uM incubated for 10 mins followed by heat treatment by SYPRO orange dye based TSA (reference value: 53.7 degreeC).
Sequence of Methionine--tRNA ligase (Staphylococcus aureus (strain Mu50 / ATCC 700699)) (P67578 whole entry): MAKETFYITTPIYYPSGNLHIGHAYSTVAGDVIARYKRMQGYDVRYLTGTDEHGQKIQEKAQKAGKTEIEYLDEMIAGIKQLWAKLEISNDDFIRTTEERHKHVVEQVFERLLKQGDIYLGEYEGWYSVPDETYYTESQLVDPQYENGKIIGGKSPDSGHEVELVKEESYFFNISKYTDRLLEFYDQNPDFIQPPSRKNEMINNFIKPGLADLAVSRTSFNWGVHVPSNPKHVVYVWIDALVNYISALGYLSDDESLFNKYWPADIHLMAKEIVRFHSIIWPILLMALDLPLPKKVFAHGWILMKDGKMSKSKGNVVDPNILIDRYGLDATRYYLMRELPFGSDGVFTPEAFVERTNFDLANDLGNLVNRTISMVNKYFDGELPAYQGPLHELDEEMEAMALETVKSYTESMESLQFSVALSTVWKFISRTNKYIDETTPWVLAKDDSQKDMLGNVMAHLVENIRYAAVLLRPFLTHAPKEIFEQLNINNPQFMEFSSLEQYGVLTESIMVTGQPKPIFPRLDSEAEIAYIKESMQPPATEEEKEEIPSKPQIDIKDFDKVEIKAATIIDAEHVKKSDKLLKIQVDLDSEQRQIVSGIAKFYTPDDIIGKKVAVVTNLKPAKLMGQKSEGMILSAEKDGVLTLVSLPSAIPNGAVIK
The target is the same in assay [2]. As to the kind of experiment: Binding affinity to Staphylococcus aureus MetRS expressed in Escherichia coli BL21(DE3) cells assessed as change in melting temperature at 100 uM incubated for 10 mins followed by heat treatment in presence of 2 mM ATP by SYPRO orange dye based TSA (reference value: 56.4 degreeC).
For assay [3] the target is unchanged. In words: Inhibition of Staphylococcus aureus MetRS expressed in Escherichia coli BL21(DE3) cells at 100 uM measured after 2.5 hrs in presence of ATP by pre-transfer editing assay relative to control.
The target is the same in assay [4]. As to the kind of experiment: Binding affinity to Staphylococcus aureus MetRS expressed in Escherichia coli BL21(DE3) cells assessed as change in enthalpy in presence of 1 mM ATP by ITC analysis.
Assay [5] shares this target. In words: Binding affinity to Staphylococcus aureus MetRS expressed in Escherichia coli BL21(DE3) cells assessed as change in Gibbs free energy in presence of 1 mM ATP by ITC analysis.
Assay [6] has the same target. In words: Binding affinity to Staphylococcus aureus MetRS expressed in Escherichia coli BL21(DE3) cells assessed as change in entropy in presence of 1 mM ATP by ITC analysis.
Assay [7] has as its system Staphylococcus aureus. In words: Antibacterial activity against Staphylococcus aureus. The class given is functional.
Assay [8] concerns the target Methionine--tRNA ligase (Staphylococcus aureus (strain Mu50 / ATCC 700699)) (UniProt P67578). In words: Binding affinity to Staphylococcus aureus MetRS expressed in Escherichia coli BL21(DE3) cells assessed as change in enthalpy in presence of ATP/L-Met by ITC analysis.
Assay [9] shares this target. In words: Binding affinity to Staphylococcus aureus MetRS expressed in Escherichia coli BL21(DE3) cells assessed as change in Gibbs free energy in presence of ATP/L-Met by ITC analysis.
Assay [10] shares this target. As to the kind of experiment: Binding affinity to Staphylococcus aureus MetRS expressed in Escherichia coli BL21(DE3) cells assessed as change in entropy in presence of ATP/L-Met by ITC analysis.
For assay [11] the target is unchanged. As to the kind of experiment: Inhibition of Staphylococcus aureus type 1 MetRS expressed in Escherichia coli BL21(DE3) cells at 50 uM measured after 2.5 hrs by pre-transfer editing assay.
For assay [12], the target named is T1, Methionine--tRNA ligase (Enterococcus faecalis) (UniProt A0A3N3ZFK4). In words: Inhibition of Enterococcus faecalis type 1 MetRS expressed in Escherichia coli BL21(DE3) cells at 50 uM measured after 1.5 hrs by pre-transfer editing assay.
T1 sequence (A0A3N3ZFK4 as listed by the source): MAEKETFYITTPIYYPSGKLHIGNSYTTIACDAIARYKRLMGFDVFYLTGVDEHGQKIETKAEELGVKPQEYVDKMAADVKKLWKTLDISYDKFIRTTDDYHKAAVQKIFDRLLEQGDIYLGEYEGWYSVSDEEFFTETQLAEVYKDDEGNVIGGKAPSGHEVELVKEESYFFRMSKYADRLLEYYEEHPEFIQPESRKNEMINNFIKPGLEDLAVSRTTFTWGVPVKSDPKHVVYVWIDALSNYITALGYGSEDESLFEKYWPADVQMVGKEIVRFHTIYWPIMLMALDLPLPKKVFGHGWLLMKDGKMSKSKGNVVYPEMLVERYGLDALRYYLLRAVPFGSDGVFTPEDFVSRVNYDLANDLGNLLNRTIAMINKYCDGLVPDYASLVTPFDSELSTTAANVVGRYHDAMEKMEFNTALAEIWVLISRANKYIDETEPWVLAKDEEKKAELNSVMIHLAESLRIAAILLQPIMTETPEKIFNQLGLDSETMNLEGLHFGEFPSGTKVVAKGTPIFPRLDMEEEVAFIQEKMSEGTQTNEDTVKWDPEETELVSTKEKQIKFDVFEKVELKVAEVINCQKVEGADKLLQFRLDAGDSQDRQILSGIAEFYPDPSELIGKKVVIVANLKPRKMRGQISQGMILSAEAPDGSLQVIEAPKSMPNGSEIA
Assay [13] has as its target T1, Methionine--tRNA ligase (Enterococcus faecalis). As to the kind of experiment: Binding affinity to Enterococcus faecalis type 1 MetRS expressed in Escherichia coli BL21(DE3) cells assessed as change in enthalpy in presence of 1 mM ATP by ITC analysis.
Assay [14] shares this target. As to the kind of experiment: Binding affinity to Enterococcus faecalis type 1 MetRS expressed in Escherichia coli BL21(DE3) cells assessed as change in Gibbs free energy in presence of 1 mM ATP by ITC analysis.
Assay [15] has the same target. As to the kind of experiment: Binding affinity to Enterococcus faecalis type 1 MetRS expressed in Escherichia coli BL21(DE3) cells assessed as change in entropy in presence of 1 mM ATP by ITC analysis.
The target is the same in assay [16]. In words: Binding affinity to Enterococcus faecalis type 1 MetRS expressed in Escherichia coli BL21(DE3) cells assessed as change in enthalpy by ITC analysis.
For assay [17] the target is unchanged. As to the kind of experiment: Binding affinity to Enterococcus faecalis type 1 MetRS expressed in Escherichia coli BL21(DE3) cells assessed as change in Gibbs free energy by ITC analysis.
Assay [18] shares this target. In words: Binding affinity to Enterococcus faecalis type 1 MetRS expressed in Escherichia coli BL21(DE3) cells assessed as change in entropy by ITC analysis.
In assay [19] the target is Methionine--tRNA ligase (Staphylococcus aureus (strain Mu50 / ATCC 700699)) (UniProt P67578). In words: Binding affinity to Staphylococcus aureus MetRS expressed in Escherichia coli BL21(DE3) cells assessed as increase in melting temperature incubated for 10 mins followed by heat treatment in presence of 0.30 to 10 mM ATP by SYPRO orange dye based TSA.
For assay [20] the target is unchanged. As to the kind of experiment: Binding affinity to Staphylococcus aureus MetRS expressed in Escherichia coli BL21(DE3) cells assessed as change in enthalpy by ITC analysis.
Assay [21] has the same target. As to the kind of experiment: Binding affinity to Staphylococcus aureus MetRS expressed in Escherichia coli BL21(DE3) cells assessed as change in Gibbs free energy by ITC analysis.
Assay [22] has the same target. In words: Binding affinity to Staphylococcus aureus MetRS expressed in Escherichia coli BL21(DE3) cells assessed as change in entropy by ITC analysis.
Assay [23] has the same target. In words: Binding affinity to Staphylococcus aureus MetRS expressed in Escherichia coli BL21(DE3) cells assessed as change in enthalpy in presence of 20 uM ATP by ITC analysis.
Assay [24] shares this target. In words: Binding affinity to Staphylococcus aureus MetRS expressed in Escherichia coli BL21(DE3) cells assessed as change in Gibbs free energy in presence of 20 uM ATP by ITC analysis.
Assay [25] has the same target. In words: Binding affinity to Staphylococcus aureus MetRS expressed in Escherichia coli BL21(DE3) cells assessed as change in entropy in presence of 20 uM ATP by ITC analysis.
The target is the same in assay [26]. In words: Binding affinity to Staphylococcus aureus MetRS expressed in Escherichia coli BL21(DE3) cells assessed as change in enthalpy in presence of 50 uM ATP by ITC analysis.
Assay [27] has the same target. In words: Binding affinity to Staphylococcus aureus MetRS expressed in Escherichia coli BL21(DE3) cells assessed as change in Gibbs free energy in presence of 50 uM ATP by ITC analysis.
Assay [28] shares this target. In words: Binding affinity to Staphylococcus aureus MetRS expressed in Escherichia coli BL21(DE3) cells assessed as change in entropy in presence of 50 uM ATP by ITC analysis.
Assay [29] has the same target. As to the kind of experiment: Binding affinity to Staphylococcus aureus MetRS expressed in Escherichia coli BL21(DE3) cells assessed as change in enthalpy in presence of 500 uM ATP by ITC analysis.
Assay [30] has the same target. As to the kind of experiment: Binding affinity to Staphylococcus aureus MetRS expressed in Escherichia coli BL21(DE3) cells assessed as change in Gibbs free energy in presence of 500 uM ATP by ITC analysis.
Assay [31] shares this target. In words: Binding affinity to Staphylococcus aureus MetRS expressed in Escherichia coli BL21(DE3) cells assessed as change in entropy in presence of 500 uM ATP by ITC analysis.
Assay [32] shares this target. As to the kind of experiment: Binding affinity to Staphylococcus aureus MetRS expressed in Escherichia coli BL21(DE3) cells assessed as increase in melting temperature incubated for 10 mins followed by heat treatment in presence of 0.30 to 10 mM ADP by SYPRO orange dye based TSA.
The target is the same in assay [33]. In words: Binding affinity to Staphylococcus aureus MetRS expressed in Escherichia coli BL21(DE3) cells assessed as increase in melting temperature incubated for 10 mins followed by heat treatment in presence of <3 mM AMP by SYPRO orange dye based TSA.
Assay [34] has the same target. In words: Binding affinity to Staphylococcus aureus MetRS expressed in Escherichia coli BL21(DE3) cells assessed as thermal stability by measuring change in melting temperature incubated for 10 mins followed by heat treatment in presence of 2 mM ATP by SYPRO orange dye based TSA.
Assay [35] deals with T2, Methionine--tRNA ligase (Staphylococcus aureus (strain Mu50 / ATCC 700699), UniProt P67578). As to the kind of experiment: Binding affinity to Staphylococcus aureus MetRS expressed in Escherichia coli BL21(DE3) cells assessed as dissociation constant in presence of 1 mM ATP by ITC analysis.
T2 sequence (P67578 whole entry): as the sequence (P67578 whole entry) above
The target of assay [36] is T2, Methionine--tRNA ligase. In words: Inhibition of Staphylococcus aureus MetRS expressed in Escherichia coli BL21(DE3) cells measured after 2.5 hrs in presence of ATP by pre-transfer editing assay.
Assay [37] deals with T3, Methionine--tRNA ligase (Enterococcus faecalis, UniProt A0A3N3ZFK4). In words: Inhibition of Enterococcus faecalis type 1 MetRS expressed in Escherichia coli BL21(DE3) cells measured after 1.5 hrs in presence of ATP by pre-transfer editing assay.
T3 sequence (A0A3N3ZFK4 whole entry): as the sequence (A0A3N3ZFK4 as listed by the source) above
Assay [38] addresses T3, Methionine--tRNA ligase. As to the kind of experiment: Binding affinity to Enterococcus faecalis type 1 MetRS expressed in Escherichia coli BL21(DE3) cells assessed as dissociation constant in presence of 1 mM ATP by ITC analysis.
In assay [39] the target is T3, Methionine--tRNA ligase. In words: Binding affinity to Enterococcus faecalis type 1 MetRS expressed in Escherichia coli BL21(DE3) cells assessed as dissociation constant by ITC analysis.
Assay [40] has as its target T2, Methionine--tRNA ligase. In words: Binding affinity to Staphylococcus aureus MetRS expressed in Escherichia coli BL21(DE3) cells assessed as dissociation constant by ITC analysis.
Assay [41] has as its target T2, Methionine--tRNA ligase. As to the kind of experiment: Binding affinity to Staphylococcus aureus MetRS expressed in Escherichia coli BL21(DE3) cells assessed as dissociation constant in presence of 20 uM ATP by ITC analysis.
Assay [42] deals with T2, Methionine--tRNA ligase. In words: Binding affinity to Staphylococcus aureus MetRS expressed in Escherichia coli BL21(DE3) cells assessed as dissociation constant in presence of 50 uM ATP by ITC analysis.
In assay [43] the target is T2, Methionine--tRNA ligase. As to the kind of experiment: Binding affinity to Staphylococcus aureus MetRS expressed in Escherichia coli BL21(DE3) cells assessed as dissociation constant in presence of ATP/L-Met by ITC analysis.
The target in assay [44] is T2, Methionine--tRNA ligase. As to the kind of experiment: Binding affinity to Staphylococcus aureus MetRS expressed in Escherichia coli BL21(DE3) cells assessed as dissociation constant in presence of 500 uM ATP by ITC analysis.
For assay [45], the target named is T2, Methionine--tRNA ligase. In words: Binding affinity to Staphylococcus aureus MetRS expressed in Escherichia coli BL21(DE3) cells assessed as dissociation constant in presence of 1 mM ADP by ITC analysis.
Assay [46] has as its target T2, Methionine--tRNA ligase. As to the kind of experiment: Binding affinity to Staphylococcus aureus MetRS expressed in Escherichia coli BL21(DE3) cells assessed as dissociation constant in presence of 1 mM AMP by ITC analysis.

Converted amounts (≈) assume the structure as drawn. The source made the active and inactive calls. The rule behind the calls is not given here.

Consider `N=C(NCCCCCCNC(=N)NC(=N)Nc1ccc(Cl)cc1)NC(=N)Nc1ccc(Cl)cc1` [CHLORHEXIDINE], for which the ΔTm in assay [1] is -3.4 °C; in [2] it was 7 °C; in assay [34] it was 7 °C. Besides, the inhibition in [3] worked out at 78.3%. Also, the deltaH was -11 kcal/mol in assay [4]; -13.6 kcal/mol in assay [8]; -7.31 kcal/mol in [13]; -11.3 kcal/mol in assay [16]; -5.95 kcal/mol in assay [20]; -20 kcal/mol in assay [23]. The deltaH in assay [26] is -18.8 kcal/mol; in assay [29], -12.5 kcal/mol. Further, the deltaG was -8.66 kcal/mol in assay [5]; -7.34 kcal/mol in [9]; -8.91 kcal/mol in [14]; -7.23 kcal/mol in [17]; -6.81 kcal/mol in assay [21]; -7.52 kcal/mol in assay [24]. In addition, the deltaG in [27] is -8.07 kcal/mol; in [30], -8.5 kcal/mol. Further, the -TdeltaS in [6] was 2.31 kcal/mol; in assay [10] it was 6.23 kcal/mol; in [15], -1.6 kcal/mol; in assay [18], 4.06 kcal/mol; in assay [22], 0.027 kcal/mol; in assay [25] it was 13.8 kcal/mol. Further, the results for the -TdeltaS in [28] and in assay [31] were 10.7 kcal/mol and 4.43 kcal/mol, respectively. Further, the minimal inhibitory concentration (MIC) in assay [7] is 0.25 µg/mL (≈ 0.495 µM). Further, the inhibition entry in [11] and in assay [12] was “Active” throughout. Further, the outcome in [19] and in assay [32] was Active. Besides, the outcome in [33] was inactive.
For `COc1cc(Nc2c(C#N)cnc3cc(OCCCN4CCN(C)CC4)c(OC)cc23)c(Cl)cc1Cl`, the ΔTm came to 0.5 °C in assay [1] and 2.1 °C in [2]. The inhibition in assay [3] worked out at 32.7%.
As to `[H]/N=C(/NCCCCN/C(=N/[H])N/C(=N/[H])Nc1ccc(Cl)cc1)N/C(=N/[H])Nc1ccc(Cl)cc1`, the Kd was determined as 0.452 µM in assay [35]; 0.15 µM in assay [38]; 2.7 µM in assay [39]; 4.92 µM in assay [40]; 1.37 µM in [41]; 0.493 µM in assay [42]. The IC50 in assay [36] is 17.3 µM; in assay [37] it was 16.1 µM.
`[H]/N=C(\N/C(=N/[H])NCCCCCCNC(=N)NC(=N)Nc1ccc(Cl)cc1)Nc1ccc(Cl)cc1` [CHLORHEXIDINE]: the dissociation constant (Kd) in [35] was determined as 0.45 µM; in assay [43], 4.19 µM; in assay [38], 0.3 µM; in assay [39], 5.04 µM; in [40] it was 10.2 µM; in assay [41], 3.1 µM. Besides, the Kd in assay [42] was 1.21 µM; in [44], 0.593 µM; in [45] it was 1.9 µM; in [46], 0.006 µM. The IC50 in assay [36] turned out to be 30.8 µM; in assay [37], 8.5 µM.
